Measurements from US5189169A (priority 1991, dated 1993).
Several values for one entry are separate records, joined by “and”; a condition that tells them apart may be missing. Equal entries are not always repeated.

What was measured:
Details in all cases: in vivo
[1] = test system: three broadleaf weeds (morning glory, mustard, velvetleaf); parameters: species or system Ipomoea purpurea, Brassica kaber, Abutilon theophrasti
[2] = test system: three broadleaf weeds (morning glory, mustard, velvetleaf); parameters: species or system Ipomoea purpurea, Brassica kaber, Abutilon theophrasti; remark: listed apart in the source
[3] = test system: three grassy weeds (wild oat, watergrass, foxtail); parameters: species or system Avena fatua, Echinochloa crusgalli, Setaria viridis
[4] = test system: yellow nutsedge; parameters: species or system Cyperus esculentus
[5] = test system: yellow nutsedge; parameters: species or system Cyperus esculentus; remark: listed apart in the source
[6] = test system: three grassy weeds (wild oat, watergrass, foxtail); parameters: species or system Avena fatua, Echinochloa crusgalli, Setaria viridis; remark: listed apart in the source

SMILES	% Control, Pre-emergence, BL avg. [1]	% Control, Post-emergence, BL avg. [2]	% Control, Pre-emergence, GR avg. [3]	% Control, Pre-emergence, NS [4]	% Control, Post-emergence, NS [5]	% Control, Post-emergence, GR avg. [6]
CCCSP(=O)(N(CCC)CCC)N(CCOC)CCOC (stereo not drawn) [Compound 46]	0%	60% and 73%	0%	0%	0%	30% and 47%
CCCCN(CC(C)C)P(=O)(SCCC)N(CCCC)CC(C)C [Compound 50]	0%	85% and 70%	0%	0%	0%	90% and 77%
CCCSP(=O)(N(CCC)CCC)N(C)c1cccc([N+](=O)[O-])c1 (stereo not drawn) [Compound 44]	0%	53%	0%	0%	0%	10%
CCCSP(=O)(N(C)CC)N(CCC)CCC (stereo not drawn) [Compound 2]	33%	100%	33%	0%	20% and 10%	80% and 57%
CCCSP(=O)(N(CCC)CCC)N(C)c1cccc(Cl)c1Cl (stereo not drawn) [Compound 35]	0%	20% and 33%	0%	0%	0%	20% and 33%
CCCN(CCC)P(=O)(SC(C)(C)C)N(CCC)CCC [Compound 3]	100%	80% and 100%	0%	0%	5% and 0%	80% and 70%
CCCSP(=O)(N(CCC)CCC)N(CCC)c1ccc(C(C)C)cc1 (stereo not drawn) [Compound 59]	0%	50% and 55%	0%	0%	0%	10% and 6%
CCCN(CCC)P(=O)(Sc1ccccc1C)N(CCC)CCC [Compound 5]	0%	40% and 33%	0%	0%	0%	40% and 27%
CCCSP(=O)(N(CCC)CCC)N(CCC)c1ccccc1 (stereo not drawn) [Compound 25]	33%	50% and 67%	0%	0%	0%	50% and 67%
CCCSP(=O)(N(CC)CCC(C)C)N(CC)CCC(C)C [Compound 51]	8%	95% and 100%	0%	0%	0%	70% and 45%
CCCSP(=O)(N(CCC)CCC)N(C)c1ccc(F)c(F)c1 (stereo not drawn) [Compound 30]	0%	80% and 97%	0%	0%	0%	5% and 0%
CCCSP(=O)(N(CCC)CCC)N(CC)c1ccccc1 (stereo not drawn) [Compound 26]	33%	50%	7%	0%	0%	20% and 10%
CCCCCN(CCCCC)P(=O)(SCCC)N(C)c1ccccc1C (stereo not drawn) [Compound 15]	0%	80% and 60%	0%	0%	5% and 0%	50% and 47%
CCCSP(=O)(N(CCC)CCC)N(C)c1ccc(Cl)cc1 (stereo not drawn) [Compound 16]	0%	43% and 73%	0%	0%	0%	33% and 47%
CCCN(CCC)P(=O)(Sc1ccc(Cl)c(Cl)c1)N(CCC)CCC [Compound 9]	0%	50% and 83%	0%	0%	0%	50% and 47%
CCCSP(=O)(N(CCC)CCC)N(C)c1ccccc1C (stereo not drawn) [Compound 14]	33%	60% and 67%	30%	0%	5% and 0%	60% and 73%
CCCSP(=O)(N(CCC)CCC)N(C)c1c(F)c(F)cc(F)c1F (stereo not drawn) [Compound 53]	10%	100%	0%	0%	0%	75% and 43%
CCCSP(=O)(N(CCC)CCC)N(C)c1ccc(Cl)cc1Cl (stereo not drawn) [Compound 22]	0%	60%	0%	0%	10% and 0%	50% and 53%
CCCSP(=O)(N(CCC)CCC)N(C)c1ccc(Cl)cc1C (stereo not drawn) [Compound 62]	0%	75% and 76%	0%	0%	0%	30% and 33%
CCCCCSP(=O)(N(CCCC)CCCC)N(CCCC)CCCC [Compound 4]	0%	50% and 45%	0%	0%	0%	70% and 77%
CCCSP(=O)(N(CCC)CCC)N(C)c1ccc(Br)cc1Br (stereo not drawn) [Compound 37]	0%	80% and 83%	0%	0%	0%	20% and 10%
CCCSP(=O)(N(C)c1ccc(F)cc1)N(C)c1ccc(F)cc1 [Compound 45]	0%	90% and 92%	0%	0%	0% and 10%	50% and 75%
CCCSP(=O)(N(CCC)CCC)N(C)c1ccc(OC)c(OC)c1 (stereo not drawn) [Compound 42]	0%	50% and 83%	0%	0%	0%	20% and 23%
CCCSP(=O)(N(CC)CC(C)C)N(CC)CC(C)C [Compound 49]	0%	100%	0%	0%	0%	80% and 47%
